Test results: patent US20050089573A1, “Oral pharmaceutical formulation containing ibandronate” (F. HOFFMANN-LA ROCHE, priority 1996, published 2005)

Test: clinical studies using ibandronate in rapidly releasing coated oral administration forms (tolerability)
Format: in vivo, patients
Text: The film dissolving upon contact with digestive juice is preferably a coating which dissolves pH-independently. The adjuvant coating may be coated using methods common in pharmaceutical technology. […] This is particularly advantageous since the administration forms of the invention are also well-tolerated by patients lying in bed.

[1] = administration forms coated with a film which quickly releases the active substance

CCCCCN(C)CCC(O)(P(=O)(O)O)P(=O)(O)O [ibandronate, 1-hydroxy-3-(N-methyl-N-pentyl)aminopropyl-1,1-diphosphonic acid]
irritations in the oesophagus when swallowing the tablets [1]: no irritations in the oesophagus
oesophagitis [1]: does not occur
cases of nausea, vomiting, pain or diarrhoea (patients treated with rapidly releasing administration forms, compared to what is otherwise observed when administering aminobisphosphonates): significantly less cases
side effects observed in clinical studies (peroral forms coated with film that dissolves pH-independently, even at high dosages): no significant side effects
